Among the data in patent publication US12227501B2, “3-amino-2-[2-(acylamino)pyridin-4-yl]-1,5,6,7-tetrahydro-4h-pyrrolo[3,2-c]pyridin-4-one as CSNK1 inhibitors” (Bayer Aktiengesellschaft, priority 2019, dated 2025) are IC50 values, retold here.

Common to all, as to type: biochemical
The target in test [1] is wild-type Epidermal Growth Factor Receptor (EGFR) (Homo sapiens (Human), UniProt P00533). Briefly: WT-EGFR Kinase Assay (TR-FRET, 2 mM ATP). (Time-resolved FRET reads energy transfer from a long-lived donor to a nearby acceptor.)
Chain of wild-type Epidermal Growth Factor Receptor (EGFR) (P00533 669-1210): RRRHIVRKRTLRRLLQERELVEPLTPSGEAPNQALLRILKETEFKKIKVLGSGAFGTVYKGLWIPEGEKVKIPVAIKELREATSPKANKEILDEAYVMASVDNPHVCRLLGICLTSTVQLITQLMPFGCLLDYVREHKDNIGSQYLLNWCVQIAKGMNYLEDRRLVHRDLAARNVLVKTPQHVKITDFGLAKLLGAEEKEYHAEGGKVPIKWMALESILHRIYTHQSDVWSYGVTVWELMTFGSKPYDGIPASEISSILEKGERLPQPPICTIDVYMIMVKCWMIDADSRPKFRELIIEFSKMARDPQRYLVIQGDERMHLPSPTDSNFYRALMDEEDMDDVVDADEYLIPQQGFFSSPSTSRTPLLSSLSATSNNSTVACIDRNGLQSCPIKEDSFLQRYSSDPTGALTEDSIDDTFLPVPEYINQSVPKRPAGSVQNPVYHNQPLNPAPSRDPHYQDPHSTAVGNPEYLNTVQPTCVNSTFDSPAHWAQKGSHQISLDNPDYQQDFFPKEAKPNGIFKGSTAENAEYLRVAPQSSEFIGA
In another test the target is human CSNK1D (Homo sapiens (Human), UniProt P48730). Briefly: CSNK1D Assay (ADP-Glo, 1 μM ATP). Conditions: read-out: CSNK1D IC50 [mol/l] (median). In short, it runs like this:
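GST-tagged full-length human CSNK1D from baculovirus-infected insect cells, typically ~0.5 ng/μL, with biotinylated peptide substrate and 1 μM ATP in HEPES pH 7.5 buffer. Compound is preincubated with enzyme 15 min at 22 °C. ADP formed is quantified by ADP-Glo luminescence.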
(In general: ADP-Glo first removes unused ATP, then detects ADP through luciferase.)

The target of test [2] is T1, human CSNK1A1 (Homo sapiens (Human), UniProt P48729). Briefly: CSNK1A1 Assay 2 (ADP-Glo, 1 μM ATP). Conditions: substrate biotin-Ahx-KRRRAL-pS-VASLPGL, read-out: CSNK1A1 Assay 2 IC50 [mol/l] (median). The method in brief:
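Full-length human CSNK1A1 as an N-terminal GST fusion (baculovirus/insect cells) with biotinylated peptide substrate biotin-Ahx-KRRRAL-pS-VASLPGL and 1 μM ATP, in HEPES pH 7.5 buffer. Compounds were pre-incubated with enzyme (~0.0375 ng/μL) for 15 min at 22 °C. Generated ADP was read by ADP-Glo luminescence as the activity measure.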

The target of test [3] is T1, human CSNK1A1. In words: CSNK1A1 High ATP Assay (ADP-Glo, 1 mM ATP). Conditions: read-out: CSNK1A1 high ATP assay IC50 [mol/l] (median). In short, it runs like this: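 GST-tagged full-length human CSNK1A1 from baculovirus-infected insect cells (typically about 0.4 ng/μL), pre-incubated with compound 15 min at 22 °C. Reaction with biotinylated peptide biotin-Ahx-KRRRAL-pS-VASLPGL at 1 mM ATP. ADP formed read by ADP-Glo luminescence.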

Where [4] appears, read: read-out: EGFR Wildtyp- 2 mM ATP IC50 [mol/l] (median).

Structures can show the parent of a compound that is named as a salt. Where two headings read alike, the source gives them in different places.

Chain of human CSNK1D (P48730 whole entry): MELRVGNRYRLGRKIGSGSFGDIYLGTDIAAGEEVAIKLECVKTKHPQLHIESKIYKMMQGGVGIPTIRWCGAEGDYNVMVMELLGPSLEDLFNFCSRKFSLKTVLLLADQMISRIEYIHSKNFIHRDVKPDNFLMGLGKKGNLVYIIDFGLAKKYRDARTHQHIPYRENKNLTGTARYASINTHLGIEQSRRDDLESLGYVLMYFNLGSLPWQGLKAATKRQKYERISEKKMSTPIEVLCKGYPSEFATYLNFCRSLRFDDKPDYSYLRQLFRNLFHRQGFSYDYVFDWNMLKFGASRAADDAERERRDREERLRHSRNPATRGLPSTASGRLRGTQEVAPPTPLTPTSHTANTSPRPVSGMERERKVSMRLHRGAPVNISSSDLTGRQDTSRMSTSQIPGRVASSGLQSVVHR
T1 sequence (P48729 whole entry, the tested form may be a part): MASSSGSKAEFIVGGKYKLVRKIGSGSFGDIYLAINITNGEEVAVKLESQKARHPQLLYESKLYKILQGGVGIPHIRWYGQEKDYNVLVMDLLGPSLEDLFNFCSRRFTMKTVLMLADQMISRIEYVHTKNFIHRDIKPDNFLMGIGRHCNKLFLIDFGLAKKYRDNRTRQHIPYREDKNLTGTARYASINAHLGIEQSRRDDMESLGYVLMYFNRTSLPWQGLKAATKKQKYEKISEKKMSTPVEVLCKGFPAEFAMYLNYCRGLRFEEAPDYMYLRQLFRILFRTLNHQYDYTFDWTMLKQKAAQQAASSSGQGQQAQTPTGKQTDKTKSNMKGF

Turning to `Cc1cc(CC(=O)Nc2cc(-c3[nH]c4c(c3Nc3ccccc3)C(=O)N(C)CC4)ccn2)ccn1` [Example 85, N-[4-(3-anilino-5-methyl-4-oxo-4,5,6,7-tetrahydro-1H-pyrrolo[3,2-c]pyridin-2-yl)pyridin-2-yl]-2-(2-methylpyridin-4-yl)acetamide], the IC50 in test [1] (setting [4]) turned out to be 0.937 µM; on human CSNK1D it was 0.00336 µM; on human CSNK1A1 [2], 0.00178 µM; on human CSNK1A1 [3], 0.0265 µM.
As to `CC1(C)Cc2[nH]c(-c3ccnc(NC(=O)Cc4ccc(F)cc4)c3)c(Nc3ccccc3F)c2C(=O)N1` [Example 86, N-{4-[3-(2-fluoroanilino)-6,6-dimethyl-4-oxo-4,5,6,7-tetrahydro-1H-pyrrolo[3,2-c]pyridin-2-yl]pyridin-2-yl}-2-(4-fluorophenyl)acetamide], the IC50 in test [1] (setting [4]) came out at 6.47 µM; at human CSNK1D it was 0.00948 µM; on human CSNK1A1 [2], 0.00444 µM; at human CSNK1A1 [3], 0.11 µM.
The like results for `O=C(Cc1ccc(F)cc1)Nc1cc(-c2[nH]c3c(c2Nc2cccc(F)c2Cl)C(=O)NCC3)ccn1` [Example 87, N-{4-[3-(2-chloro-3-fluoroanilino)-4-oxo-4,5,6,7-tetrahydro-1H-pyrrolo[3,2-c]pyridin-2-yl]pyridin-2-yl}-2-(4-fluorophenyl)acetamide] were, in that order, 0.158 µM, 0.00602 µM, 0.00257 µM and 0.0647 µM.
Turning to `CC1(C)Cc2[nH]c(-c3ccnc(NC(=O)Cc4ccc(F)cc4)c3)c(Nc3cccc(F)c3Cl)c2C(=O)N1` [Example 112, N-{4-[3-(2-chloro-3-fluoroanilino)-6,6-dimethyl-4-oxo-4,5,6,7-tetrahydro-1H-pyrrolo[3,2-c]pyridin-2-yl]pyridin-2-yl}-2-(4-fluorophenyl)acetamide], the IC50 in test [1] (setting [4]) is 3.43 µM; on human CSNK1D, 0.00841 µM; on human CSNK1A1 [2], 0.00669 µM; at human CSNK1A1 [3], 0.167 µM.
Consider `CN1CCc2[nH]c(-c3ccnc(NC(=O)Cc4cnccn4)c3)c(Nc3ccccc3)c2C1=O` [Example 114, N-[4-(3-anilino-5-methyl-4-oxo-4,5,6,7-tetrahydro-1H-pyrrolo[3,2-c]pyridin-2-yl)pyridin-2-yl]-2-(pyrazin-2-yl)acetamide], for which the IC50 in test [1] (setting [4]) came to 2.06 µM; at human CSNK1D, 0.0047 µM; on human CSNK1A1 [2], 0.00243 µM; on human CSNK1A1 [3], 0.227 µM.
The like results for `CN1CCc2[nH]c(-c3ccnc(NC(=O)Cc4ccccn4)c3)c(Nc3ccccc3)c2C1=O` [Example 115, N-[4-(3-anilino-5-methyl-4-oxo-4,5,6,7-tetrahydro-1H-pyrrolo[3,2-c]pyridin-2-yl)pyridin-2-yl]-2-(pyridin-2-yl)acetamide] were, in that order, 3.67 µM, 0.00509 µM, 0.00241 µM and 0.248 µM.
Consider `CN1CCc2[nH]c(-c3ccnc(NC(=O)Cc4cccc(C(F)(F)F)c4)c3)c(Nc3ccccc3)c2C1=O` [Example 116, N-[4-(3-anilino-5-methyl-4-oxo-4,5,6,7-tetrahydro-1H-pyrrolo[3,2-c]pyridin-2-yl)pyridin-2-yl]-2-[3-(trifluoromethyl)phenyl]acetamide], for which the IC50 in test [1] (setting [4]) was over 20 µM; on human CSNK1D it was 0.0544 µM; on human CSNK1A1 [2], 0.0186 µM; on human CSNK1A1 [3], 0.453 µM.
As to `COC(=O)c1ccc(CC(=O)Nc2cc(-c3[nH]c4c(c3Nc3ccccc3)C(=O)N(C)CC4)ccn2)cc1` [Example 117, methyl 4-(2-{[4-(3-anilino-5-methyl-4-oxo-4,5,6,7-tetrahydro-1H-pyrrolo[3,2-c]pyridin-2-yl)pyridin-2-yl]amino}-2-oxoethyl)benzoate], the IC50 in test [1] (setting [4]) was 1.27 µM; at human CSNK1D, 0.00299 µM; at human CSNK1A1 [2] it was 0.00146 µM; on human CSNK1A1 [3], 0.0962 µM.
The like results for `CC1(C)Cc2[nH]c(-c3ccnc(NC(=O)Cc4ccc(F)cc4)c3)c(Nc3cccc(F)c3)c2C(=O)N1` [Example 119, N-{4-[3-(3-fluoroanilino)-6,6-dimethyl-4-oxo-4,5,6,7-tetrahydro-1H-pyrrolo[3,2-c]pyridin-2-yl]pyridin-2-yl}-2-(4-fluorophenyl)acetamide] were, in that order, 2.54 µM, 0.0108 µM, 0.00565 µM and 0.354 µM.
In the case of `O=C(Cc1ccc(F)cc1)Nc1cc(-c2[nH]c3c(c2Nc2cccc(F)c2Cl)C(=O)NC2(CCC2)C3)ccn1` [Example 122, N-{4-[3′-(2-chloro-3-fluoroanilino)-4′-oxo-1′,4′,5′,7′-tetrahydrospiro[cyclobutane-1,6′-pyrrolo[3,2-c]pyridin]-2′-yl]pyridin-2-yl}-2-(4-fluorophenyl)acetamide], the IC50 worked out at 2.15 µM in test [1] (setting [4]), 0.00471 µM on human CSNK1D, 0.00412 µM at human CSNK1A1 [2] and 0.0268 µM on human CSNK1A1 [3].
The like results for `O=C(Cc1ccc(F)cc1)Nc1cc(-c2[nH]c3c(c2Nc2ccccc2)C(=O)NC2(CC2)C3)ccn1` [Example 146, N-[4-(3′-anilino-4′-oxo-1′,4′,5′,7′-tetrahydrospiro[cyclopropane-1,6′-pyrrolo[3,2-c]pyridin]-2′-yl)pyridin-2-yl]-2-(4-fluorophenyl)acetamide] were, in that order, 0.667 µM, 0.00628 µM, 0.00138 µM and 0.00504 µM.
With `CN1CCc2[nH]c(-c3ccnc(NC(=O)Cc4ccc(F)cc4)c3)c(Nc3cc(F)ccc3F)c2C1=O` [Example 150, N-{4-[3-(2,5-difluoroanilino)-5-methyl-4-oxo-4,5,6,7-tetrahydro-1H-pyrrolo[3,2-c]pyridin-2-yl]pyridin-2-yl}-2-(4-fluorophenyl)acetamide], the IC50 was over 20 µM in test [1] (EGFR Wildtyp- 2 mM ATP IC50 [mol/l] (median)); 18.3 µM in test [1] (setting [4]); 0.0266 µM on human CSNK1D; 0.0179 µM on human CSNK1A1 [2]; 1.27 µM at human CSNK1A1 [3].
As for `COCCNC(=O)c1ccc(CC(=O)Nc2cc(-c3[nH]c4c(c3Nc3ccccc3)C(=O)N(C)CC4)ccn2)cc1` [Example 152, 4-(2-{[4-(3-anilino-5-methyl-4-oxo-4,5,6,7-tetrahydro-1H-pyrrolo[3,2-c]pyridin-2-yl)pyridin-2-yl]amino}-2-oxoethyl)-N-(2-methoxyethyl)benzamide], the IC50 in test [1] (setting [4]) came to 1.66 µM; on human CSNK1D, 0.00796 µM; on human CSNK1A1 [2], 0.00245 µM; on human CSNK1A1 [3], 0.037 µM.
Take `CN1CCc2[nH]c(-c3ccnc(NC(=O)Cc4ccc(C(=O)N5CCNCC5)cc4)c3)c(Nc3ccccc3)c2C1=O` [Example 153, N-[4-(3-anilino-5-methyl-4-oxo-4,5,6,7-tetrahydro-1H-pyrrolo[3,2-c]pyridin-2-yl)pyridin-2-yl]-2-[4-(piperazine-1-carbonyl)phenyl]acetamide]: the IC50 was determined as 0.287 µM in test [1] (setting [4]), 0.00928 µM on human CSNK1D, 0.00196 µM on human CSNK1A1 [2] and 0.0739 µM on human CSNK1A1 [3].
In the same order, the values of `CN1CCc2[nH]c(-c3ccnc(NC(=O)Cc4ccc(F)cc4)c3)c(Nc3cccc(F)c3F)c2C1=O` [Example 154, N-{4-[3-(2,3-difluoroanilino)-5-methyl-4-oxo-4,5,6,7-tetrahydro-1H-pyrrolo[3,2-c]pyridin-2-yl]pyridin-2-yl}-2-(4-fluorophenyl)acetamide formamide salt] are over 20 µM, 0.00445 µM, 0.00333 µM and 0.119 µM.
In the same order, the values of `CN(C)CCNC(=O)c1ccc(CC(=O)Nc2cc(-c3[nH]c4c(c3Nc3ccccc3)C(=O)N(C)CC4)ccn2)cc1` [Example 155, 4-(2-{[4-(3-anilino-5-methyl-4-oxo-4,5,6,7-tetrahydro-1H-pyrrolo[3,2-c]pyridin-2-yl)pyridin-2-yl]amino}-2-oxoethyl)-N-[2-(dimethylamino)ethyl]benzamide] are 0.476 µM, 0.00701 µM, 0.00312 µM and 0.0485 µM.
`CN1CCc2[nH]c(-c3ccnc(NC(=O)Cc4c(F)cc(F)cc4F)c3)c(Nc3ccccc3)c2C1=O` [Example 164, N-[4-(3-anilino-5-methyl-4-oxo-4,5,6,7-tetrahydro-1H-pyrrolo[3,2-c]pyridin-2-yl)pyridin-2-yl]-2-(2,4,6-trifluorophenyl)acetamide]: the IC50 in test [1] (setting [4]) came to 0.419 µM; on human CSNK1D, 0.00308 µM; on human CSNK1A1 [2] it was 0.00383 µM; at human CSNK1A1 [3], 0.149 µM.
